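96-well plates; 48 h exposure; 5 concentrations. Endpoints by linear interpolation between flanking doses. Not reached: highest tested concentration assigned. Here, GI50 denotes the concentration required for 50% inhibition of growth. Definition used: TGI = concentration required for complete inhibition of growth.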

Results on 10 compounds are retold here after PubChem BioAssay (NCI).

Some test systems named below: ACHN renal; NCI/ADR-RES ovarian; OVCAR-3 ovarian; RXF 393 renal; SF-539 CNS; SW-620 colon; T-47D breast; UACC-257 melanoma.
Holding throughout (experiment): NCI-60 cell line screen, 48 h

Take `NC(=O)c1cccc(Nc2nccc(Nc3cccc4[nH]ncc34)n2)c1`: the GI50 in the assay with ACHN renal was 10.9 µM; in the assay with NCI/ADR-RES ovarian, more than 25 µM; with OVCAR-3 ovarian, 8.31 µM; in the assay on RXF 393 renal, 4.43 µM; in the assay on SF-539 CNS, 6.24 µM; in the assay with SW-620 colon it was 9.09 µM. For the same compound, the values for the GI50 with T-47D breast and in the assay on UACC-257 melanoma were 2.99 µM and more than 19.2 µM, respectively. The TGI in the assay with ACHN renal was more than 25 µM; in the assay on NCI/ADR-RES ovarian it was more than 25 µM; in the assay with OVCAR-3 ovarian, 24.6 µM; in the assay on RXF 393 renal, 16.3 µM; with SF-539 CNS it was more than 21.7 µM; in the assay on SW-620 colon, more than 25 µM. The TGI is more than 17.9 µM with T-47D breast and more than 25 µM in the assay with UACC-257 melanoma.

`COc1ccccc1CNCCCN1C(=O)c2ccc3c4c(ccc(c24)C1=O)C(=O)N(CCCCNCCCN)C3=O`: the GI50 with ACHN renal is 3.68 µM; with NCI/ADR-RES ovarian, 5.98 µM; with OVCAR-3 ovarian, 0.334 µM; with RXF 393 renal, 0.807 µM; in the assay on SF-539 CNS, 1.68 µM; in the assay on SW-620 colon it was 0.636 µM. Moreover, the figures for the GI50 in the assay with T-47D breast and in the assay on UACC-257 melanoma were 1.13 µM and 0.698 µM, respectively. Moreover, the TGI in the assay with ACHN renal is 17.3 µM; in the assay on NCI/ADR-RES ovarian, 34.2 µM; in the assay with OVCAR-3 ovarian it was 1.14 µM; in the assay with RXF 393 renal, 2.3 µM; in the assay on SF-539 CNS it was 3.19 µM; in the assay with SW-620 colon, 2 µM. The TGI in the assay with T-47D breast is 3.65 µM; in the assay with UACC-257 melanoma, 2.08 µM.

With `COc1ccc2c(c1)CC[C@H](O)/C2=C/c1cc(OC)c(OC)c(OC)c1`, the GI50 in the assay with ACHN renal is 0.227 µM; in the assay with NCI/ADR-RES ovarian it was 0.0639 µM; in the assay on OVCAR-3 ovarian, 0.0757 µM; with SF-539 CNS, 0.0722 µM; with SW-620 colon, 0.0739 µM; in the assay with T-47D breast it was 0.0354 µM. For the same compound, the TGI was more than 100 µM in the assay with ACHN renal; more than 100 µM with OVCAR-3 ovarian; 0.43 µM with SF-539 CNS; more than 100 µM in the assay with SW-620 colon; 52.8 µM in the assay with T-47D breast.

In the case of `O=Cc1cccc2c1Oc1c(cccc1C(=O)O)S2`, the TGI with ACHN renal, with NCI/ADR-RES ovarian, in the assay on OVCAR-3 ovarian, with SF-539 CNS, in the assay on SW-620 colon and in the assay with T-47D breast was more than 100 µM throughout. Moreover, the TGI in the assay on UACC-257 melanoma was more than 100 µM.

For the compound `COC(=O)Cc1ccc(Oc2cnc3cc(F)c(F)cc3n2)cc1`, the GI50 in the assay with ACHN renal was more than 100 µM; in the assay with NCI/ADR-RES ovarian it was 23.8 µM; in the assay with OVCAR-3 ovarian, 93.3 µM; in the assay on RXF 393 renal it was more than 100 µM; in the assay with SF-539 CNS, more than 100 µM; with SW-620 colon it was more than 100 µM. The GI50 in the assay with UACC-257 melanoma is more than 100 µM. The TGI is more than 100 µM with ACHN renal; 81.1 µM with NCI/ADR-RES ovarian; more than 100 µM in the assay with OVCAR-3 ovarian; more than 100 µM with RXF 393 renal; more than 100 µM in the assay with SF-539 CNS; more than 100 µM with SW-620 colon. This compound showed a TGI with UACC-257 melanoma of more than 100 µM.

Turning to `Cc1cc(C)c(NC(=S)NC(=O)c2ccccc2)cc1C`, the TGI in the assay on ACHN renal, in the assay with NCI/ADR-RES ovarian, in the assay with OVCAR-3 ovarian, in the assay on RXF 393 renal, in the assay with SF-539 CNS and in the assay with SW-620 colon was more than 100 µM throughout. In addition, the TGI in the assay with T-47D breast and in the assay with UACC-257 melanoma was more than 100 µM each time.

Take `COc1cc(CNc2ccccc2C(=O)N2CCN(C(=O)c3cc(-c4cc(OC)c(OC)c(OC)c4)n4nc(-c5ccccc5)cc4n3)CC2)cc(OC)c1OC`: the GI50 in the assay on ACHN renal was 4.24 µM; in the assay on NCI/ADR-RES ovarian it was 1.95 µM; in the assay with OVCAR-3 ovarian, 2.69 µM; in the assay on RXF 393 renal, 2.32 µM; in the assay with SF-539 CNS, 2.54 µM; in the assay on SW-620 colon, 3.67 µM. The GI50 in the assay with UACC-257 melanoma is 4.97 µM. Moreover, the TGI in the assay on ACHN renal was more than 100 µM; with NCI/ADR-RES ovarian, 5.76 µM; in the assay with OVCAR-3 ovarian, 9.59 µM; in the assay with RXF 393 renal it was 7.54 µM; in the assay on SF-539 CNS, more than 100 µM; in the assay on SW-620 colon, more than 100 µM. This compound returned a TGI in the assay on UACC-257 melanoma of more than 100 µM.

Turning to `COc1cc(-c2nc(-c3nc4ccccc4[nH]3)cc3c2[nH]c2ccccc23)cc(OC)c1OC`, the GI50 was 4.86 µM in the assay on ACHN renal; 3.59 µM in the assay on NCI/ADR-RES ovarian; 6.2 µM with OVCAR-3 ovarian; 3.25 µM in the assay on RXF 393 renal; 23.1 µM in the assay on SF-539 CNS; 7.14 µM in the assay on SW-620 colon. The results for the GI50 in the assay on T-47D breast and with UACC-257 melanoma were 2.92 µM and 3.57 µM, respectively. In addition, the TGI in the assay with ACHN renal, in the assay with NCI/ADR-RES ovarian, in the assay with OVCAR-3 ovarian, with RXF 393 renal, in the assay with SF-539 CNS and in the assay on SW-620 colon was more than 100 µM throughout. Besides, the TGI in the assay on T-47D breast and in the assay with UACC-257 melanoma was more than 100 µM in each case.

On to `COc1ccc2nc3cc([N+](=O)[O-])ccc3c(NCCCN(C)C)c2c1`, for which the GI50 with ACHN renal was 0.418 µM; in the assay on NCI/ADR-RES ovarian it was 2.46 µM; in the assay with OVCAR-3 ovarian, 0.594 µM; in the assay on SF-539 CNS, 0.52 µM; in the assay on SW-620 colon, 0.067 µM; in the assay on UACC-257 melanoma, 1.71 µM. Further, the TGI was determined as 3.09 µM in the assay with ACHN renal; 14.2 µM in the assay on NCI/ADR-RES ovarian; 7.86 µM in the assay on OVCAR-3 ovarian; 3.19 µM in the assay with SF-539 CNS; 1.39 µM with SW-620 colon; 4.41 µM with UACC-257 melanoma.

For the compound `Cc1cn2c(/C=N/N=C(N)N)c(-c3cccs3)nc2s1`, the GI50 with ACHN renal was 2.12 µM; with NCI/ADR-RES ovarian, 15.3 µM; with OVCAR-3 ovarian, 1.91 µM; in the assay on RXF 393 renal, 10.2 µM; with SF-539 CNS it was 1.6 µM; in the assay with SW-620 colon it was 1.71 µM. Besides, the GI50 in the assay on T-47D breast was 5.51 µM; with UACC-257 melanoma, 2.54 µM. Further, the TGI in the assay with ACHN renal came out at 5 µM; in the assay on NCI/ADR-RES ovarian it was 28.7 µM; in the assay with OVCAR-3 ovarian it was 5.5 µM; with RXF 393 renal it was 46.2 µM; in the assay on SF-539 CNS, 3.12 µM; with SW-620 colon, 4.02 µM. The TGI in the assay on T-47D breast came out at 25.9 µM; in the assay on UACC-257 melanoma it was 6.14 µM.
